In patent US8962265B2, “Mutant parasites for use as vaccines and platforms for screening for compounds” (Indiana University Research and Technology Corp., priority 2010, dated 2015):

Test system: TgIF2α
Assay: Western blot of TgIF2α phosphorylation
Type: cell-based, Toxoplasma gondii
Details: wild-type parasites treated with the ionophore
Experimental: In order to confirm that the TgIF2α-S71A clone could not be phosphorylated under normal physiological condition, a Western blot of lysates from parasites treated with the ionophore A23187 was carried out using antisera that specifically recognizes TgIF2α which is phosphorylated at ser-71 or total TgIF2α protein (Narasimhan et al., 2008b; Sullivan Jr. et al., 2004b). Referring now to FIG. 1C, equal amounts of protein lysates from WT or TgIF2α-S71A tachyzoites were resolved on a 4-12% polyacrylamide gel and transferred to a membrane for immunoblotting with antibody that specifically recognizes TgIF2α phosphorylated at ser-71 (TgIF2α-P) or total TgIF2α protein. […]
Next addressed was whether TgIF2K-D is required for induced TgIF2α phosphorylation when the parasite is outside of the host cell. Referring now to FIG. 9A, TgIF2α phosphorylation was analyzed by separating cell lysates via denaturing SDS-PAGE, followed by western blotting using antibodies to total TgIF2α or phosphorylated TgIF2α (TgIF2α˜P). […]
Phosphorylation of TgIF2α was monitored by Western blotting performed in accordance with standard methods. […]
Western blot analyses of TgIF2α phosphorylation were carried out as previously described. […] HA-tagged proteins were detected by western blot analyses after resolving parasite lysate on a 3-8% Tris-acetate polyacrylamide gradient gel. […]

Q: With CNc1ccc2oc(C[C@H]3O[C@@]4(CC[C@H]3C)O[C@H]([C@H](C)C(=O)c3ccc[nH]3)[C@H](C)C[C@H]4C)nc2c1C(=O)O [A23187] as the molecule, how does the “induction of TgIF2α phosphorylation” value read?
A: potent inducer
